Measurements from ChEMBL document CHEMBL5649167, “The SUV4-20 inhibitor A-196 verifies a role for epigenetics in genomic integrity” (Nat Chem Biol, 2017).
Calls of active or inactive are those of the source. The rule behind the calls is not given here.

Tests used:
[1] = tested on: B-cell; experiment: Induction of DNA repair in mouse B cells assessed as inhibition in H4K20me2 level at 1 to 10 uM incubated for 96 hrs by western blot analysis; format: functional, cell-based; conditions: dose 1-10 µM
[2] = target: Adenosine receptor A2a (Homo sapiens) (UniProt P29274); experiment: Inhibition of human Adenosine receptor A2a at 10 uM relative to control
[3] = target: Kappa-type opioid receptor (Homo sapiens) (UniProt P41145); experiment: Inhibition of human Kappa-type opioid receptor at 10 uM relative to control
Chain of Kappa-type opioid receptor (Homo sapiens) (P41145 whole entry): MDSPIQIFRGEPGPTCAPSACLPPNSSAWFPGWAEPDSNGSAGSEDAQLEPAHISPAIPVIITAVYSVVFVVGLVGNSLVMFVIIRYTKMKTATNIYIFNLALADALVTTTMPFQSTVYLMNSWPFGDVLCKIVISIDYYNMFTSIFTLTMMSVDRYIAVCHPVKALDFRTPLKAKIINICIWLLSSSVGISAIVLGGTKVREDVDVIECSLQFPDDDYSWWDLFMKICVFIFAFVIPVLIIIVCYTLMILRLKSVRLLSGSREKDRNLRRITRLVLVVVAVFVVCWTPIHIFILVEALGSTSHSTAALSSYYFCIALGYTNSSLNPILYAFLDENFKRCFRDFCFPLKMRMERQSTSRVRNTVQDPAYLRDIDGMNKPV

[4] = target: 5-hydroxytryptamine receptor 2B (Homo sapiens) (UniProt P41595); experiment: Inhibition of human 5-hydroxytryptamine receptor 2B at 10 uM relative to control
[5] = target: T1, Muscarinic acetylcholine receptor M2 (Homo sapiens) (UniProt P08172); experiment: Inhibition of human Muscarinic acetylcholine receptor M2 at 10 uM relative to control
T1 sequence (whole entry): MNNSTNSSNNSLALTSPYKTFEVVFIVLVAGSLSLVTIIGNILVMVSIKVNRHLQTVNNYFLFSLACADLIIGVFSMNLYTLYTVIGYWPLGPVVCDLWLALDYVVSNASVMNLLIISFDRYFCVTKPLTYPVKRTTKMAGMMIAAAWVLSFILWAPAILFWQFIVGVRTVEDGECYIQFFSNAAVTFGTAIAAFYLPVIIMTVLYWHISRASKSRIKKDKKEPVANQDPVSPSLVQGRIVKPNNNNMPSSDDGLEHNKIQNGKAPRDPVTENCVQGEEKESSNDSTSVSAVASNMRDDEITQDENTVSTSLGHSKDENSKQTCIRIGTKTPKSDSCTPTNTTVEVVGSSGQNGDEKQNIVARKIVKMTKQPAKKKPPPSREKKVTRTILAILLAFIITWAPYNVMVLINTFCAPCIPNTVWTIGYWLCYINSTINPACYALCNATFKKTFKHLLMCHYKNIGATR

[6] = target: D(1A) dopamine receptor (Homo sapiens) (UniProt P21728); experiment: Inhibition of human D(1A) dopamine receptor at 10 uM relative to control
Chain of D(1A) dopamine receptor (Homo sapiens) (P21728 whole entry): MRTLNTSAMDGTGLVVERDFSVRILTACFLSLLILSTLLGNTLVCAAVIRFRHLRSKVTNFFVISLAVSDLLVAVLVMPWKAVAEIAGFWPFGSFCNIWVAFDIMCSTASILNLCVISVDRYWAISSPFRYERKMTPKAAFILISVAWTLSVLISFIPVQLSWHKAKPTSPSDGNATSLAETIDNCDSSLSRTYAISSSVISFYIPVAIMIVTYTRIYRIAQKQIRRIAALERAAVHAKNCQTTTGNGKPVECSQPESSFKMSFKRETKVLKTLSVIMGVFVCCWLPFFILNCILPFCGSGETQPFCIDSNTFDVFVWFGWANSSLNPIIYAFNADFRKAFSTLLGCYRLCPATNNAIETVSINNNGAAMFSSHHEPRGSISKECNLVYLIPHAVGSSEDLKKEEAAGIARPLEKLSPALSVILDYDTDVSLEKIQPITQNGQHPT

[7] = target: Sodium-dependent serotonin transporter (Homo sapiens) (UniProt P31645); experiment: Inhibition of human 5-HT transporter at 10 uM relative to control
[8] = target: B2 bradykinin receptor (Homo sapiens) (UniProt P30411); experiment: Inhibition of human BK-2 receptor at 10 uM relative to control
Chain of B2 bradykinin receptor (Homo sapiens) (P30411 whole entry): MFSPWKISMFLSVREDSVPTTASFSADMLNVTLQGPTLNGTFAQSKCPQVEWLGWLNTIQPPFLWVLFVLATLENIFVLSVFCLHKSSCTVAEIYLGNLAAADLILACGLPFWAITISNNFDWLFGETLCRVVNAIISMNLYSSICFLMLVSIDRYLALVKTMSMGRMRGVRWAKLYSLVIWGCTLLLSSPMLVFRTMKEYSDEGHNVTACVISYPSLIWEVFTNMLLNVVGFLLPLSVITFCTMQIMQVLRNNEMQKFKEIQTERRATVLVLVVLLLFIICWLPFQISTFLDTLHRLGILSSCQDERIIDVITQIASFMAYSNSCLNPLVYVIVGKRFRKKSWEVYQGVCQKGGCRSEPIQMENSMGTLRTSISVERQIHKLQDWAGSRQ

[9] = target: Histamine H1 receptor (Homo sapiens) (UniProt P35367); experiment: Inhibition of human HH1R at 10 uM relative to control
Chain of Histamine H1 receptor (Homo sapiens) (P35367 whole entry): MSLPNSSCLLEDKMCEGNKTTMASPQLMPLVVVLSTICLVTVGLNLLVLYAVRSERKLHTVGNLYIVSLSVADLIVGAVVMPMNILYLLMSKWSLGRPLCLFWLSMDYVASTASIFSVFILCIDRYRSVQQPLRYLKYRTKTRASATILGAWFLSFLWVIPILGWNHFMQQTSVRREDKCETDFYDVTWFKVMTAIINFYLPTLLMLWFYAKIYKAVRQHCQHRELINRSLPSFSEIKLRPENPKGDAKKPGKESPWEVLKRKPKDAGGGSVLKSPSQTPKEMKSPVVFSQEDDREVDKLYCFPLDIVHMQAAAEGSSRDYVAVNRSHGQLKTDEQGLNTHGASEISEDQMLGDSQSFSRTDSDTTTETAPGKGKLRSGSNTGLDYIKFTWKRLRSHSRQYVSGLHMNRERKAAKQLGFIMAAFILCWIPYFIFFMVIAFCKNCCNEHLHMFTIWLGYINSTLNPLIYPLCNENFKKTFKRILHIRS

[10] = target: C-X-C chemokine receptor type 2 (Homo sapiens) (UniProt P25025); experiment: Inhibition of human CXCR2 at 10 uM relative to control
Chain of C-X-C chemokine receptor type 2 (Homo sapiens) (P25025 whole entry): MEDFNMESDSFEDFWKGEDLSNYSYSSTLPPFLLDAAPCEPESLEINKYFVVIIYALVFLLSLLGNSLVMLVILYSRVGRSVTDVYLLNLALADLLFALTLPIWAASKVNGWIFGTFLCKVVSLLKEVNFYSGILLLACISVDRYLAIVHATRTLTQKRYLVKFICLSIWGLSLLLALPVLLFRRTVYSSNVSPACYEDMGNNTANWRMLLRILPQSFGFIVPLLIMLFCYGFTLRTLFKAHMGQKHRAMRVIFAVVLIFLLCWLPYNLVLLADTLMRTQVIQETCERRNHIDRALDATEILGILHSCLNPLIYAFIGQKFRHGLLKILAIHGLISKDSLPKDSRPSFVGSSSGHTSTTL

[11] = target: Vasoactive intestinal polypeptide receptor 1 (Homo sapiens) (UniProt P32241); experiment: Inhibition of human VPAC1 at 10 uM relative to control
Chain of Vasoactive intestinal polypeptide receptor 1 (Homo sapiens) (P32241 whole entry): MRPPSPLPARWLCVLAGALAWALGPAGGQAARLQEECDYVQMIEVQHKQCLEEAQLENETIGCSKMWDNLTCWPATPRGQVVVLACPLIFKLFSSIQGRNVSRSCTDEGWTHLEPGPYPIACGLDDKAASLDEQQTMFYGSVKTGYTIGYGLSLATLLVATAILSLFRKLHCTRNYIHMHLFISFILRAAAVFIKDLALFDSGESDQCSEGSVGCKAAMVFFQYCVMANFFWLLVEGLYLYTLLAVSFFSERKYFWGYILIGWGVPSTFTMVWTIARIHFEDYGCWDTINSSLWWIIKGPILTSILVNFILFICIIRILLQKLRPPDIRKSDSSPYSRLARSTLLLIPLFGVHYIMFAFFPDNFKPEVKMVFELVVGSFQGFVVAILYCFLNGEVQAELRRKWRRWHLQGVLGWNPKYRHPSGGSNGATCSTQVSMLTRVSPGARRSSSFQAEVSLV

[12] = target: Beta-1 adrenergic receptor (Homo sapiens) (UniProt P08588); experiment: Inhibition of human Beta-1 adrenergic receptor expressed in Cricetulus griseus Flp-In-CHO cells at 10 uM relative to control; format: cell-based
Chain of Beta-1 adrenergic receptor (Homo sapiens) (P08588 whole entry, looked up): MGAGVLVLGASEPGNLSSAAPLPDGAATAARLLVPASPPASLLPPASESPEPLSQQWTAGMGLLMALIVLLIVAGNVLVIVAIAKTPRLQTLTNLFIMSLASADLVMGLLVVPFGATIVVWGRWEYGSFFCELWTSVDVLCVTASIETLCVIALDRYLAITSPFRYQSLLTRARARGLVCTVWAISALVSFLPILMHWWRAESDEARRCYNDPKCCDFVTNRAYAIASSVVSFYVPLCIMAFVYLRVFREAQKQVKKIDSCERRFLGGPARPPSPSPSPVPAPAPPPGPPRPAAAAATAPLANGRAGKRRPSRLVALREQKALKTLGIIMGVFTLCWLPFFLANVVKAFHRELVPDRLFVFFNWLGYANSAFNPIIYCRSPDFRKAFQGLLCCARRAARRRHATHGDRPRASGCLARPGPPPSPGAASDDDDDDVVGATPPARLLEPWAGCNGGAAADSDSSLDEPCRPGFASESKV

[13] = target: Beta-2 adrenergic receptor (Homo sapiens) (UniProt P07550); experiment: Inhibition of human Beta-2 adrenergic receptor expressed in human Flp-In-293 cells at 10 uM relative to control; format: cell-based
Chain of Beta-2 adrenergic receptor (Homo sapiens) (P07550 whole entry, looked up): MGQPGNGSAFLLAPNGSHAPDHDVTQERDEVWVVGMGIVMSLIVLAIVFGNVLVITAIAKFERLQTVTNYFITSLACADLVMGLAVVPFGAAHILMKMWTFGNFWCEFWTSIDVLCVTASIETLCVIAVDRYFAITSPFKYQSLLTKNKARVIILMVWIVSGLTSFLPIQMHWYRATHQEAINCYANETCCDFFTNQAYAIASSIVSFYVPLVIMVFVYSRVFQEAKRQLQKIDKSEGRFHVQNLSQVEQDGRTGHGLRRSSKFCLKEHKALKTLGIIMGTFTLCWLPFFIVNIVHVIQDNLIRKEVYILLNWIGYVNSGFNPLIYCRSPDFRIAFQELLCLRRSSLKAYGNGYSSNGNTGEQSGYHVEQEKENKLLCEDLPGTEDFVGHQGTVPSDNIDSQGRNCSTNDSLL

[14] = target: Alpha-2B adrenergic receptor (Homo sapiens) (UniProt P18089); experiment: Inhibition of human Alpha-2B adrenergic receptor expressed in HEK293T cells at 10 uM relative to control; format: cell-based
[15] = target: 5-hydroxytryptamine receptor 2C (Homo sapiens) (UniProt P28335); experiment: Inhibition of human 5-HT2C receptor expressed in HEK293T cells at 10 uM relative to control; format: cell-based
[16] = target: T2, 5-hydroxytryptamine receptor 1A (Homo sapiens) (UniProt P08908); experiment: Inhibition of human 5-HT1A receptor expressed in stable […] cells at 10 uM relative to control; format: cell-based; conditions: HEK293T
T2 sequence (whole entry): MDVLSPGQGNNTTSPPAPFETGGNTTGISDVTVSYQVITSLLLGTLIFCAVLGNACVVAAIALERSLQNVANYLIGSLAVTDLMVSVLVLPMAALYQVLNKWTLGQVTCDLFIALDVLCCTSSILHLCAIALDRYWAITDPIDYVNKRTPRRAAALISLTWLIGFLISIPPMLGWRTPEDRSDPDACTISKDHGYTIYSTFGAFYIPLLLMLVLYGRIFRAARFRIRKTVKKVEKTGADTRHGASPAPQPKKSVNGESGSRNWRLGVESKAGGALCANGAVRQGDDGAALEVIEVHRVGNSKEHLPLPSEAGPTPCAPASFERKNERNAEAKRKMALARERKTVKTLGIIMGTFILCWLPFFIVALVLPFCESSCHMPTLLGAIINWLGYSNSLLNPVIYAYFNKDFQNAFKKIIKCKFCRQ

[17] = target: T3, Muscarinic acetylcholine receptor M1 (Homo sapiens) (UniProt P11229); experiment: Inhibition of human Muscarinic acetylcholine receptor M1 expressed in stable Cricetulus griseus CHO cells at 10 uM relative to control; format: cell-based
T3 sequence (whole entry): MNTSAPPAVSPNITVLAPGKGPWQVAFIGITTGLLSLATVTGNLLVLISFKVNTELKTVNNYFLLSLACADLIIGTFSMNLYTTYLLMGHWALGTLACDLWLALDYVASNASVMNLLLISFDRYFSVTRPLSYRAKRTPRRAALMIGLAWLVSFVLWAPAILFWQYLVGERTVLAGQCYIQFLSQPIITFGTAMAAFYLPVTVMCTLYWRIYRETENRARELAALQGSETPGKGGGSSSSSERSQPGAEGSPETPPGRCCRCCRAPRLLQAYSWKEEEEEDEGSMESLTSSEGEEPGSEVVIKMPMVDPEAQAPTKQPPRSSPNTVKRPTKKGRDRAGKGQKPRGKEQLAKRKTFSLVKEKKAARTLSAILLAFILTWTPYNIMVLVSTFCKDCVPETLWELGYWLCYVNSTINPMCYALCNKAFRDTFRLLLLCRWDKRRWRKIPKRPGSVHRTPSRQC

[18] = target: D(4) dopamine receptor (Homo sapiens) (UniProt P21917); experiment: Inhibition of human D(4) dopamine receptor in stable HEK cells at 10 uM relative to control; format: cell-based
Chain of D(4) dopamine receptor (Homo sapiens) (P21917 whole entry): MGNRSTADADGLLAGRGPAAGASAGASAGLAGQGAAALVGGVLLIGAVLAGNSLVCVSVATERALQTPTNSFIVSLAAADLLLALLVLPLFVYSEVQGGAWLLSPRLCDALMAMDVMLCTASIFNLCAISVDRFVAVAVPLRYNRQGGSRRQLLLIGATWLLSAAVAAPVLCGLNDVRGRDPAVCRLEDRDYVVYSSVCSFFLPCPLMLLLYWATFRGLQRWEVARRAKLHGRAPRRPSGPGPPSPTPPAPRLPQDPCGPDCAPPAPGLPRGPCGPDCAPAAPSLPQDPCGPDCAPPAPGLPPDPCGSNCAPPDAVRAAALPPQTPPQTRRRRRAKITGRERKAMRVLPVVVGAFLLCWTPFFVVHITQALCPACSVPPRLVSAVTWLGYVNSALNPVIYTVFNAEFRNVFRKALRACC

[19] = target: T1, Muscarinic acetylcholine receptor M2 (Homo sapiens); experiment: Inhibition of human Muscarinic acetylcholine receptor M2 expressed in stable Cricetulus griseus CHO cells at 10 uM relative to control; format: cell-based
[20] = target: Muscarinic acetylcholine receptor M4 (Homo sapiens) (UniProt P08173); experiment: Inhibition of human Muscarinic acetylcholine receptor M4 expressed in stable Cricetulus griseus CHO cells at 10 uM relative to control; format: cell-based
Chain of Muscarinic acetylcholine receptor M4 (Homo sapiens) (P08173 whole entry): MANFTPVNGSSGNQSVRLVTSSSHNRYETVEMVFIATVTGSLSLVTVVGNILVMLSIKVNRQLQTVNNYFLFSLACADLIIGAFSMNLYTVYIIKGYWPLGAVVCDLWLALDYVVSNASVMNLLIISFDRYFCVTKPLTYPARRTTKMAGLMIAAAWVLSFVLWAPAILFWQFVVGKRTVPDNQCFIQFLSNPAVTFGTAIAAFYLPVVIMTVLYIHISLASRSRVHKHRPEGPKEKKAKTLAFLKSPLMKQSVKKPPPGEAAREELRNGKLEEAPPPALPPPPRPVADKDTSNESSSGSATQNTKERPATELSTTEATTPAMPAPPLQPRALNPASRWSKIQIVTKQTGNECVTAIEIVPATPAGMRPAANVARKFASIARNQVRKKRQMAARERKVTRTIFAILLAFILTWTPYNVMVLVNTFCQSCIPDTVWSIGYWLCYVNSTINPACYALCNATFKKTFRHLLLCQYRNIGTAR

[21] = target: D(2) dopamine receptor (Homo sapiens) (UniProt P14416); experiment: Inhibition of human D(2) dopamine receptor expressed in stable human fibroblast cells at 10 uM relative to control; format: cell-based
Chain of D(2) dopamine receptor (Homo sapiens) (P14416 whole entry): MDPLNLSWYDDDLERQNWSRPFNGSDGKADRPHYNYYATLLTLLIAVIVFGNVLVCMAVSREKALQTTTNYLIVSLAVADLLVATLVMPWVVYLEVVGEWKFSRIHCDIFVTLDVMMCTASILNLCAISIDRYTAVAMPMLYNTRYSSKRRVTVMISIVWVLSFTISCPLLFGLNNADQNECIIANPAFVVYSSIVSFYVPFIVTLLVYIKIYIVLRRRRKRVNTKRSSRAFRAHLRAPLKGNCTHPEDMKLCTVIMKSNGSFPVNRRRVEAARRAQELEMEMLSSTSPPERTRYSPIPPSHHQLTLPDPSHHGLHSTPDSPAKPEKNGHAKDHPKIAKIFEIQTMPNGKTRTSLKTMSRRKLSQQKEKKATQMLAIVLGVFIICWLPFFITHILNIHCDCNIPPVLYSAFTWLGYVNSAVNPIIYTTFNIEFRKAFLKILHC

[22] = target: Muscarinic acetylcholine receptor M3 (Homo sapiens) (UniProt P20309); experiment: Inhibition of human Muscarinic acetylcholine receptor M3 expressed in stable Cricetulus griseus CHO cells at 10 uM relative to control; format: cell-based

inhibition [2] | inhibition [3] | inhibition [4] | inhibition [5] | inhibition [6] | inhibition [7] | inhibition [8] | inhibition [9] | inhibition [10] | inhibition [11] | inhibition [12] | inhibition [13] | inhibition [14] | inhibition [15] | inhibition [16] | inhibition [17] | inhibition [18] | inhibition [19] | inhibition [20] | Structure (SMILES) | inhibition [1] | other results
98% | 62% | 27% | 23% | 15% | 5% | 1% | 1% | -1% | -5% | 32% | 20% | 14% | 8% | 6% | 4% | 1% | -1% | -3% | Clc1cc2c(NC3CCCC3)nnc(-c3ccncc3)c2cc1Cl | Active | inhibition [21]: -6%; inhibition [22]: -8%
22% | 45% | 8% | -2% | -3% | -7% | -4% | 3% | 8% | -4% | -4% | 17% | 7% | 13% | 12% | -8% | -2% | -5% | -7% | O=C(c1nnc(NC2CCCC2)c2cc(Cl)c(Cl)cc12)N1CCC(O)CC1 | inactive | inhibition [21]: 39%; inhibition [22]: -3%
